Legend:
[1] = biological target: Serine/threonine-protein kinase RIO1 (Homo sapiens) (UniProt Q9BRS2); conditions: Compound concentration 1000.0 nM
[2] = system: Mast/stem cell growth factor receptor Kit (Homo sapiens), P10721 [V559D,V654A]; conditions: Compound concentration 1000.0 nM
[3] = biological target: Insulin receptor (Homo sapiens) (UniProt P06213); conditions: Compound concentration 1000.0 nM
[4] = biological target: Dual specificity mitogen-activated protein kinase kinase 2 (Homo sapiens) (UniProt P36507); conditions: Compound concentration 1000.0 nM
[5] = biological target: Serine/threonine-protein kinase PAK 2 (Homo sapiens) (UniProt Q13177); conditions: Compound concentration 1000.0 nM
[6] = biological target: Proto-oncogene tyrosine-protein kinase Src (Homo sapiens) (UniProt P12931); conditions: Compound concentration 1000.0 nM
[7] = biological target: T1, Myosin-IIIb (Homo sapiens) (UniProt Q8WXR4); conditions: Compound concentration 1000.0 nM
T1 sequence (whole entry): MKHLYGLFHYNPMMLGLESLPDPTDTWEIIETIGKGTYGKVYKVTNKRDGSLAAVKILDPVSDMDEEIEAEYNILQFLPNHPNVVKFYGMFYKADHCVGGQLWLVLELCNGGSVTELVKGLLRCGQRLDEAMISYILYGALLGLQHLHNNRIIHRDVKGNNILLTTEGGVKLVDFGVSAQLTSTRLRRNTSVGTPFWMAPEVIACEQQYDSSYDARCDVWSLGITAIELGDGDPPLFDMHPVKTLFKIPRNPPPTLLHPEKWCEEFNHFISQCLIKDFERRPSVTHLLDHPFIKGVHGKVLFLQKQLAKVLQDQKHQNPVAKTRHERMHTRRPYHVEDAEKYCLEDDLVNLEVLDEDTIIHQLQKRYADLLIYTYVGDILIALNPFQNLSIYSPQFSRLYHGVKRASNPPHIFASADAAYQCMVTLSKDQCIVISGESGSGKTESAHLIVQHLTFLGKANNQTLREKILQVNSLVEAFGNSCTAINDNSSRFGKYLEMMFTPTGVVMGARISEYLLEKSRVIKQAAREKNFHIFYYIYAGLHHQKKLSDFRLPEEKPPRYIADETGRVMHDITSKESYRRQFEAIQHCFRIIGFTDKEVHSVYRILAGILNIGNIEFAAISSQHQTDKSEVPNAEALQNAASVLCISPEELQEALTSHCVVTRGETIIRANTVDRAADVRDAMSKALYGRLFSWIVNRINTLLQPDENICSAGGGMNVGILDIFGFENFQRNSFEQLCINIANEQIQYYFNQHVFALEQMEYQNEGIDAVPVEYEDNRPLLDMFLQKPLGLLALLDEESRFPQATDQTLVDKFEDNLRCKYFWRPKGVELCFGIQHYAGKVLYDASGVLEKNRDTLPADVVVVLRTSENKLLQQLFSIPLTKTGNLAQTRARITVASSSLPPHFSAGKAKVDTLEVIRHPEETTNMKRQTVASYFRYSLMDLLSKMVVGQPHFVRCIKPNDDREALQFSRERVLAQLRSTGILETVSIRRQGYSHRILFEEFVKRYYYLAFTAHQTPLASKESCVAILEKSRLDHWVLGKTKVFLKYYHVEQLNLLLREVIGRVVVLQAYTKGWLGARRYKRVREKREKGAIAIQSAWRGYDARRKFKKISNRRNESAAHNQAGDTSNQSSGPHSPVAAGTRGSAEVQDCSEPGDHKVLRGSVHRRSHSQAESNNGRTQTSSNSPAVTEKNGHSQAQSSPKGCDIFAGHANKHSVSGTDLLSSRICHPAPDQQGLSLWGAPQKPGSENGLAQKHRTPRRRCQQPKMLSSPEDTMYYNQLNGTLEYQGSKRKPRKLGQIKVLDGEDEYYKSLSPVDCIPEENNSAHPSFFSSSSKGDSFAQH

[8] = biological target: Cyclin-dependent kinase 11B (Homo sapiens) (UniProt P21127); conditions: Compound concentration 1000.0 nM
[9] = system: eIF-2-alpha kinase GCN2 (Homo sapiens), Q9P2K8 [S808G]; conditions: Compound concentration 1000.0 nM
[10] = biological target: Serine/threonine-protein kinase PLK1 (Homo sapiens) (UniProt P53350); conditions: Compound concentration 1000.0 nM
[11] = biological target: Serine/threonine-protein kinase 36 (Homo sapiens) (UniProt Q9NRP7); conditions: Compound concentration 1000.0 nM
[12] = biological target: T2, Beta-adrenergic receptor kinase 1 (Homo sapiens) (UniProt P25098); conditions: Compound concentration 1000.0 nM
T2 sequence (whole entry): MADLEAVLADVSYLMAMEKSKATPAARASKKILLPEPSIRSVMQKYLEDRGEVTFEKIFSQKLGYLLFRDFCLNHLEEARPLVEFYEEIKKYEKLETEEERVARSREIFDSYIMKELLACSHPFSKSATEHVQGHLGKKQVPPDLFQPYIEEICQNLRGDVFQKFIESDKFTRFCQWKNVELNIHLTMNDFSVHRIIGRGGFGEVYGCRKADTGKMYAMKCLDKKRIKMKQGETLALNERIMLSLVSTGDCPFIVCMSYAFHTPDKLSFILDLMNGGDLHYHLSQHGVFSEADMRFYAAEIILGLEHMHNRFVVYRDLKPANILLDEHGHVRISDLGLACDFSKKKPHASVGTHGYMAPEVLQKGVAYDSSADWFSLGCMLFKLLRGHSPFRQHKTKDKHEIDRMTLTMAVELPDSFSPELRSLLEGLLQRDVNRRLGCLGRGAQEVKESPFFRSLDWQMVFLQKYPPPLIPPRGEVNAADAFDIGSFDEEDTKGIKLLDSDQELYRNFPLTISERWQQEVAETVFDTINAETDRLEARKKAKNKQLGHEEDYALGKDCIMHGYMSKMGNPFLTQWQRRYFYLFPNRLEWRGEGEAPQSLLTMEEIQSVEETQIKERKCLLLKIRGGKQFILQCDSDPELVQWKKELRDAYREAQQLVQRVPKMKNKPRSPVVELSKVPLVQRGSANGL

[13] = biological target: 5-hydroxytryptamine receptor 6 (Homo sapiens) (UniProt P50406); conditions: Compound concentration 10.0 uM
[14] = biological target: Phosphatidylinositol 4-phosphate 5-kinase type-1 alpha (Homo sapiens) (UniProt Q99755); conditions: Compound concentration 1000.0 nM
[15] = biological target: Receptor-interacting serine/threonine-protein kinase 1 (Homo sapiens) (UniProt Q13546); conditions: Compound concentration 1000.0 nM
[16] = biological target: Ribosomal protein S6 kinase alpha-2 (Homo sapiens, UniProt Q15349); conditions: Compound concentration 1000.0 nM

Chain of Dual specificity mitogen-activated protein kinase kinase 2 (Homo sapiens) (P36507 whole entry): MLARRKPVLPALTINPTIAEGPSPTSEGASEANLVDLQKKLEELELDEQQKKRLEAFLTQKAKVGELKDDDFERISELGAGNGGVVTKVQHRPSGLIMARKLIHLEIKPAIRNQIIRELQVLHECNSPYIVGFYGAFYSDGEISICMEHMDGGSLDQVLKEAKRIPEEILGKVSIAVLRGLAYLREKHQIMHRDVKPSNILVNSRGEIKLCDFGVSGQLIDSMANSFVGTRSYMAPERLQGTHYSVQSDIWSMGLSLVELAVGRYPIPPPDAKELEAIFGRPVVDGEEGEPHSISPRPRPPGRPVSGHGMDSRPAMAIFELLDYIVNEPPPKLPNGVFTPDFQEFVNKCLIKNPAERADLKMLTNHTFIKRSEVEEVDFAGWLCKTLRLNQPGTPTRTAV
Chain of 5-hydroxytryptamine receptor 6 (Homo sapiens) (P50406 whole entry): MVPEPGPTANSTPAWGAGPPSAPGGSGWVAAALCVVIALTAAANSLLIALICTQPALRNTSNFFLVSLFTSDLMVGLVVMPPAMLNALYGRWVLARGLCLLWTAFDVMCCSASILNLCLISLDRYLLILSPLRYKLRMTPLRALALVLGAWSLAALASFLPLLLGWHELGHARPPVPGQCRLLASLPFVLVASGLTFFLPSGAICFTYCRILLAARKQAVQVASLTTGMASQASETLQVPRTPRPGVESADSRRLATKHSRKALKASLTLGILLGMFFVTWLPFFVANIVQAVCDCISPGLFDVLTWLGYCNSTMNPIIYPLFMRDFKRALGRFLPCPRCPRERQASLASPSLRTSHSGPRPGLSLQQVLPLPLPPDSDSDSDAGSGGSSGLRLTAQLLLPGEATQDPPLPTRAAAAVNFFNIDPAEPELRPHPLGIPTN
Chain of Serine/threonine-protein kinase 36 (Homo sapiens) (Q9NRP7 whole entry): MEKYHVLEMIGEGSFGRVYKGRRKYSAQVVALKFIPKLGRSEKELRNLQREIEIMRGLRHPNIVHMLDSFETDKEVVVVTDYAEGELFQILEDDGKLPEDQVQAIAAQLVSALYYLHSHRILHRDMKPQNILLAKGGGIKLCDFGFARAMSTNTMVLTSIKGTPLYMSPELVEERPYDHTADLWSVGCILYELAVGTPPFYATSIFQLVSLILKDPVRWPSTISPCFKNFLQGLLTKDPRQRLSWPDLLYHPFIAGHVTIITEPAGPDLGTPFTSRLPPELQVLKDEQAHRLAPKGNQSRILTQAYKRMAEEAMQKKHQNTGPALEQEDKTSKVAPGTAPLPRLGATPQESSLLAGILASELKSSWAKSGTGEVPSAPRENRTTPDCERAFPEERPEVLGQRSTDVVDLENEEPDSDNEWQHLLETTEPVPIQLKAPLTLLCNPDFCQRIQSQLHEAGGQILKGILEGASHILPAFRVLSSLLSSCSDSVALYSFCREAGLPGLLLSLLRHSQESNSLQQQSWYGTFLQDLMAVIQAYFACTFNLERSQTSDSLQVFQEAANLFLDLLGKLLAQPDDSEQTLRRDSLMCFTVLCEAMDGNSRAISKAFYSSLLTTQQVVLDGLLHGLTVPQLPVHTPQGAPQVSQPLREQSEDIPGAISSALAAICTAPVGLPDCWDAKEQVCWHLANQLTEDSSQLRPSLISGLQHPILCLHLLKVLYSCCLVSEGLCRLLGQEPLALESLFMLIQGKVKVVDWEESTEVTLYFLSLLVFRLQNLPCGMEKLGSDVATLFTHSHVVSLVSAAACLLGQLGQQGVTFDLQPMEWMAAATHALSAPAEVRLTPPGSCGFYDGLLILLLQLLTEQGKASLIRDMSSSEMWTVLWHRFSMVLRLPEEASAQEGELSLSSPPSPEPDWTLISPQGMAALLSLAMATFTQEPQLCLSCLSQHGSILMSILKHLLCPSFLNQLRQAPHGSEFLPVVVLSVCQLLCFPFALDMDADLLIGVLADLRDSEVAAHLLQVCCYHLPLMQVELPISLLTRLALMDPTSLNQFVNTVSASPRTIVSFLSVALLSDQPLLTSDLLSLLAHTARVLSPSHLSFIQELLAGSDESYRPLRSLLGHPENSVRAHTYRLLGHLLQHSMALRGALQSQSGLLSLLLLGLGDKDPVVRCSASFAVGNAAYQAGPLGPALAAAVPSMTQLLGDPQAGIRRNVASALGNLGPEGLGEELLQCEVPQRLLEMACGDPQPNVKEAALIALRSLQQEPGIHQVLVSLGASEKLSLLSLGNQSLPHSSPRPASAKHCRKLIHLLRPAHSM
Chain of Serine/threonine-protein kinase RIO1 (Homo sapiens) (Q9BRS2 whole entry): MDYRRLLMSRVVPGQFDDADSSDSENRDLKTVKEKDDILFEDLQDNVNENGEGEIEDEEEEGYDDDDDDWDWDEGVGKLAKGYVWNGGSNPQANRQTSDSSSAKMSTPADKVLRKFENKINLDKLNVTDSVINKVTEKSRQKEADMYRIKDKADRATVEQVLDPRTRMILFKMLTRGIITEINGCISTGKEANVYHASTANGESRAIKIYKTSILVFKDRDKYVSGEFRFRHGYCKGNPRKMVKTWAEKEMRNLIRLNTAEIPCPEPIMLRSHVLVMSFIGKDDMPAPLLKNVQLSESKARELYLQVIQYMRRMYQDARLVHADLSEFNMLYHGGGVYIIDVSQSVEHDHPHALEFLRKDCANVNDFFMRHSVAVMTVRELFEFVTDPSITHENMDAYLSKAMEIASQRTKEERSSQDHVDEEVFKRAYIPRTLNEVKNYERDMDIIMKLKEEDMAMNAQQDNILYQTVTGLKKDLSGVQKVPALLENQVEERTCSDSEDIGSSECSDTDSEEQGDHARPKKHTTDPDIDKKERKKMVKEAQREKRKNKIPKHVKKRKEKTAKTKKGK
Chain of Insulin receptor (Homo sapiens) (P06213 28-758 limits assumed): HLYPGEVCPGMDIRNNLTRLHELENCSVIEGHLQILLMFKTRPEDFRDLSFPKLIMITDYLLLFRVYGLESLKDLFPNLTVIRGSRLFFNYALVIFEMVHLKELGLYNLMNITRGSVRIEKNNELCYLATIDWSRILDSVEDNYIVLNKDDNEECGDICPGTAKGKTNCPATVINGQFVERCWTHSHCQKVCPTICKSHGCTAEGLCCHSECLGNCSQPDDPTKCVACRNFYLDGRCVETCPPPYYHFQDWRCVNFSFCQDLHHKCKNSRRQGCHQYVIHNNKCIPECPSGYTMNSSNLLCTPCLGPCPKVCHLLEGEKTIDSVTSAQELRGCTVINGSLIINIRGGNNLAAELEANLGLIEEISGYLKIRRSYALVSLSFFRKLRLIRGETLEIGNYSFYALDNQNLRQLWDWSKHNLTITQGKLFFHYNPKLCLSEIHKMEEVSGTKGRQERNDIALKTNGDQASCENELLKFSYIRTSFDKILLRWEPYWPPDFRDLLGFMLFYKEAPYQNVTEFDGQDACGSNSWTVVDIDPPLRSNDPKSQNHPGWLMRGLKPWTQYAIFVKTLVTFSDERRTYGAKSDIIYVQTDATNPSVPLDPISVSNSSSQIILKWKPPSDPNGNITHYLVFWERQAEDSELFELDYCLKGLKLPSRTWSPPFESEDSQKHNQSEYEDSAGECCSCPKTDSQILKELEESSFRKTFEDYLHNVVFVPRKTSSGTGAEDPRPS
Chain of Insulin receptor (Homo sapiens) (P06213 763-1382 limits assumed): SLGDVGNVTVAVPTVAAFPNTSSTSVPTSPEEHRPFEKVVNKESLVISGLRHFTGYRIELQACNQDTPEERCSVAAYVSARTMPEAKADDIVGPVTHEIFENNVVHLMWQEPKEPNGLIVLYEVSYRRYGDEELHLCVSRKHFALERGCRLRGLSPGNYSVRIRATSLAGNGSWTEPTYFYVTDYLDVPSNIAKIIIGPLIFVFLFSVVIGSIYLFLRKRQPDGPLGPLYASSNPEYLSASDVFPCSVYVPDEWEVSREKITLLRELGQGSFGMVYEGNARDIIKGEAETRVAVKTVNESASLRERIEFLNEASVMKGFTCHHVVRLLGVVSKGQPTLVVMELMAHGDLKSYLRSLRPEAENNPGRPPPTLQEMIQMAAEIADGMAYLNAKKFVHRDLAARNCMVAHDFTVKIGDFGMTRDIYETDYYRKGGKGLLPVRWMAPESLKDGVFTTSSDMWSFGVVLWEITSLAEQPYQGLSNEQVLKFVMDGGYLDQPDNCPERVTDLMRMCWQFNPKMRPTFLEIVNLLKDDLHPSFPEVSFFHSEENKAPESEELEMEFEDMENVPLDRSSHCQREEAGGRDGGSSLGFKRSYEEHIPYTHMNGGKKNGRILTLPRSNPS
Chain of Cyclin-dependent kinase 11B (Homo sapiens) (P21127 whole entry): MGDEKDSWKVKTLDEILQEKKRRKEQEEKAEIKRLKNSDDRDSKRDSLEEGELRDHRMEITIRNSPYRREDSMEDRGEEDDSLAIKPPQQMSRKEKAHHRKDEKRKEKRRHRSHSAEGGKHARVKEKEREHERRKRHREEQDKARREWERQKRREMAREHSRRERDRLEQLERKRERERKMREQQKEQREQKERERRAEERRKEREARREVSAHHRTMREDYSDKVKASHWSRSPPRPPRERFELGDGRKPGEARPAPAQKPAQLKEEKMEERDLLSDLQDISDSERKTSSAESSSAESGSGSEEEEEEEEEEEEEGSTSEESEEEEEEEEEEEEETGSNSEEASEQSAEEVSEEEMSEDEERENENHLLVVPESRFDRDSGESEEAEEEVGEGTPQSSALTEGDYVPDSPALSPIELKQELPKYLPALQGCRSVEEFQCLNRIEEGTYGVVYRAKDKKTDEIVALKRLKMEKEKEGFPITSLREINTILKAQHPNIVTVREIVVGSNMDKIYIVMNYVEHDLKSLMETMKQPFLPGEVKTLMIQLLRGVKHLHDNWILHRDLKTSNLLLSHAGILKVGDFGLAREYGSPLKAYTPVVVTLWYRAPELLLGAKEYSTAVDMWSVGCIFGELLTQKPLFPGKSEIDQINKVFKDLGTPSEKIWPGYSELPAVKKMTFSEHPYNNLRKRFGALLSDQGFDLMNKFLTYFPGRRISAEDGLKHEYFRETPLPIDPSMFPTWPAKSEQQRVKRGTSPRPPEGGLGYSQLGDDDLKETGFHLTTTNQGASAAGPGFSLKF

CCc1ccccc1C(=O)Nc1n[nH]c2c(C)c(F)c(C3C(C#N)=C(C)N(C)C(C)=C3C#N)cc12 [BAY-3827]
inactive: residual activity [1] 82% | residual activity [2] 100% | residual activity [3] 100% | residual activity [4] 100% | residual activity [5] 75% | residual activity [6] 94% | residual activity [7] 77% | residual activity [8] 100% | residual activity [10] 100% | residual activity [11] 100% | residual activity [12] 100% | inhibition [13] 9.23% | residual activity [14] 100% | residual activity [15] 100%
active: residual activity [9] 43% | residual activity [16] 0%

CC1=C(C#N)C(c2ccc3c(c2)c(NC(=O)c2ccccc2C)nn3C)C(C#N)=C(C)N1 [BAY-974]
inactive: residual activity [1] 93% | residual activity [2] 99% | residual activity [3] 100% | residual activity [4] 82% | residual activity [5] 100% | residual activity [6] 89% | residual activity [7] 100% | residual activity [8] 100% | residual activity [9] 61% | residual activity [10] 85% | residual activity [11] 87% | residual activity [12] 91% | inhibition [13] 2.21% | residual activity [14] 100% | residual activity [15] 100% | residual activity [16] 83%
